Data taken from patent publication US6156789A, “Method for treating abnormal cell proliferation in the brain” (Rhone-Poulenc Rorer S.A., priority 1998, dated 2000).
Values joined by “and” are separate entries in the source; they are usually repeats but may differ in a detail not shown here. Equal values may be shown once. Read-outs that look alike come from different tables or passages of the source.

Experiment: Brain distribution of Compound A in mice with mammary C/16 adenocarcinomas (second method, brain tissue)
Format: in vivo, C3H/HeN female mice
Experimental: Mammary C/16 adenocarcinomas were implanted in C3H/HeN female mice. At least 7 days later, 4α,10β-diacetoxy-2α-benzoyloxy-5β,20-epoxy-1β-hydroxy-7β,8β-methylene-9-oxo-19-nor-11-taxen-13α-yl (2R,3S)-3-tert-butoxycarbonylamino-2-hydroxy-3-phenylpropionate ("Compound A") was administered to groups of female mice at doses of 9.5, 15.4, 24.8, 40 or 60.5 mg/kg by intravenous injection under 0.4 or 0.5 ml/injection over 15 seconds. The body weight and date of implantation were recorded for each mouse. Blood and tissue samples were taken 2, 5, 15, 30 and 45 minutes and 1, 4, 14, 24 and 48 hours, after administration. The plasma was separated from the blood samples at 4° C. and frozen immediately. The tissue and tumors were weighed and frozen immediately (-20° C.).
The plasma and tissue samples were then analyzed for the concentration of Compound A. The plasma was assayed by high pressure liquid chromatography with spectrophotometric detection. For the tissue, liver, heart, kidney, lung, spleen and tumor tissue, samples were assayed by a first method, while a second method was used for the brain tissue analyzed. In the first method, 0.2 g of tissue was combined with 2 ml of sodium phosphate buffer 0.1 M (pH:7) and homogenized. The homogenate was centrifuged and 0.5 ml of supernatant was injected into the chromatographic column. In the second method, 10 μl of standard solution was combined with 0.2 g of brain tissue. 2 ml of methanol/5% perchloric acid (50/50) were added and the mixture was homogenized. The homogenate was centrifuged and 100 μl of supernatant was injected into the chromatographic column.

[1] = 0.03 h, 40 μg/kg [sic], single mice
[2] = 0.03 h, 40 μg/kg [sic], single mice, 40 mg/kg, 1.8 min
[3] = 0.08 h, 40 μg/kg [sic], single mice, MEAN=b257
[4] = 0.08 h, 40 μg/kg [sic], single mice, MEAN=b257, 40 mg/kg, 4.8 min
[5] = 0.25 h, 40 μg/kg [sic], single mice
[6] = 0.25 h, 40 μg/kg [sic], single mice, 40 mg/kg, 15 min
[7] = 0.50 h, 40 μg/kg [sic], single mice
[8] = 0.75 h, 40 μg/kg [sic], single mice, MEAN=b278
[9] = 1 h, 40 μg/kg [sic], single mice
[10] = 1 h, 40 μg/kg [sic], single mice, 40 mg/kg, 60 min
[11] = 4 h, 40 μg/kg [sic], single mice
[12] = 4 h, 40 μg/kg [sic], single mice, 40 mg/kg, 240 min
[13] = 14 h, 40 μg/kg [sic], single mice
[14] = 24 h, 40 μg/kg [sic], single mice
[15] = 24 h, 40 μg/kg [sic], single mice, 40 mg/kg, 1440 min
[16] = 48 h, 40 μg/kg [sic], single mice

With `CC(=O)O[C@H]1C(=O)[C@]23C[C@H]2C[C@H]2OC[C@@]2(OC(C)=O)[C@H]3[C@H](OC(=O)c2ccccc2)[C@]2(O)C[C@H](OC(=O)[C@H](O)[C@@H](NC(=O)OC(C)(C)C)c3ccccc3)C(C)=C1C2(C)C` [Compound A, 4α,10β-diacetoxy-2α-benzoyloxy-5β,20-epoxy-1β-hydroxy-7β,8β-methylene-9-oxo-19-nor-11-taxen-13α-yl (2R,3S)-3-tert-butoxycarbonylamino-2-hydroxy-3-phenylpropionate] as the molecule, how does the “brain and plasma AUCs at 4 hours compared” value (40 mg/kg i.v.) read?
The value was “similar”.

And the “0 to infinity AUC in brain tissue compared with plasma” value (40 mg/kg i.v., mouse)?
The value was “ten times that observed for plasma”.

And the “% of DOSE (brain)” value [1]?
The value was 0.42% and 0.53% and 0.47% and 0.36% and 0.45%.

What about the “AMOUNT In TISSUE (brain)” value [1] of the same molecule?
Its value is 4.21 µg and 5.17 µg and 4.34 µg and 3.55 µg and 4.32 µg.

What about the “Brain CONC.” value [2] of the same molecule?
Its value is 11.32 µg/g and 9.51 µg/g and 7.64 µg/g and 9.57 µg/g.

What about the “RATIO BRAIN/PLASMA” value [2] of the same molecule?
Its value is 0.22 and 0.15.

What about the “Percentage of Compound A (of dose) in Brain” value (“Percentage” below) (0.033 h, 40 mg/kg) of the same molecule?
Its value is 0.19%.

And the “% of DOSE (brain)” value [3]?
Its value is 0.60% and 0.49% and 0.58% and 0.56%.

And the “AMOUNT In TISSUE (brain)” value [3]?
The value was 6.14 µg and 4.62 µg and 5.62 µg and 5.46 µg.

What about the “Brain CONC.” value [4] of the same molecule?
Its value is 10.69 µg/g and 13.46 µg/g and 12.56 µg/g.

And the “RATIO BRAIN/PLASMA” value [4]?
The value was 0.27 and 0.29 and 0.34.

What about the “% of DOSE (brain)” value [5] of the same molecule?
The value was 0.58% and 0.52% and 0.67% and 0.66% and 0.61%.

And the “AMOUNT In TISSUE (brain)” value [5]?
Its value is 5.38 µg and 4.88 µg and 6.68 µg and 6.07 µg and 5.75 µg.

What about the “Brain CONC.” value [6] of the same molecule?
The value was 11.16 µg/g and 15.37 µg/g and 13.12 µg/g and 13.21 µg/g.

What about the “RATIO BRAIN/PLASMA” value [6] of the same molecule?
The value was 0.53 and 0.50 and 0.66 and 0.57.

What about the “% of DOSE (brain)” value [7] of the same molecule?
The value was 0.53% and 0.45% and 0.42% and 0.39%.

What about the “AMOUNT In TISSUE (brain)” value [7] of the same molecule?
Its value is 4.78 µg and 4.56 µg and 3.87 µg and 3.53 µg and 4.19 µg.

And the “RATIO BRAIN/PLASMA” value (0.50 h, 40 μg/kg [sic], single mice, 40 mg/kg, 30 min)?
Its value is 0.69 and 0.75.

And the “% of DOSE (brain)” value [8]?
The value was 0.38% and 0.53% and 0.50% and 0.45%.

And the “AMOUNT In TISSUE (brain)” value [8]?
The value was 3.32 µg and 4.99 µg and 4.49 µg and 3.92 µg and 4.18 µg.

And the “Brain CONC.” value (0.75 h, 40 μg/kg [sic], single mice, MEAN=b278, 40 mg/kg, 45 min)?
Its value is 11.46 µg/g and 9.98 µg/g and 9.00 µg/g and 9.5 µg/g.

What about the “% of DOSE (brain)” value [9] of the same molecule?
Its value is 0.54% and 0.34% and 0.33% and 0.43% and 0.41%.

What about the “AMOUNT In TISSUE (brain)” value [9] of the same molecule?
The value was 5.14 µg and 3.35 µg and 3.14 µg and 4.22 µg and 3.96 µg.

What about the “Brain CONC.” value [10] of the same molecule?
Its value is 7.23 µg/g and 7.33 µg/g and 9.05 µg/g and 8.77 µg/g.

And the “RATIO BRAIN/PLASMA” value [10]?
Its value is 1.18 and 1.12.

And the “Percentage” value (1 h, 40 mg/kg)?
The value was 0.41%.

What about the “% of DOSE (brain)” value [11] of the same molecule?
Its value is 0.34% and 0.45% and 0.36% and 0.40% and 0.39%.

And the “AMOUNT In TISSUE (brain)” value [11]?
Its value is 3.27 µg and 4.27 µg and 3.40 µg and 3.67 µg and 3.65 µg.

And the “Brain CONC.” value [12]?
The value was 10.24 µg/g and 7.88 µg/g and 8.38 µg/g and 8.47 µg/g.

What about the “RATIO BRAIN/PLASMA” value [12] of the same molecule?
Its value is 2.46 and 2.7 and 2.71.

And the “Percentage” value (4 h, 40 mg/kg)?
Its value is 0.39%.

And the “% of DOSE (brain)” value [13]?
The value was 0.40% and 0.44% and 0.28% and 0.38%.

And the “AMOUNT In TISSUE (brain)” value [13]?
Its value is 3.73 µg and 4.06 µg and 2.46 µg and 3.65 µg and 3.48 µg.

And the “Brain CONC.” value (14 h, 40 μg/kg [sic], single mice, 40 mg/kg, 840 min)?
The value was 8.77 µg/g and 5.77 µg/g and 8.23 µg/g and 7.84 µg/g.

And the “% of DOSE (brain)” value [14]?
Its value is 0.39% and 0.29% and 0.33%.

And the “AMOUNT In TISSUE (brain)” value [14]?
Its value is 3.78 µg and 2.58 µg and 2.79 µg and 3.08 µg and 3.06 µg.

What about the “Brain CONC.” value [15] of the same molecule?
Its value is 6.00 µg/g and 6.20 µg/g and 7.03 µg/g and 6.95 µg/g.

What about the “RATIO BRAIN/PLASMA” value [15] of the same molecule?
Its value is 20.67 and 20.68.

What about the “Percentage” value (24 h, 40 mg/kg) of the same molecule?
The value was 0.33%.

What about the “% of DOSE (brain)” value [16] of the same molecule?
The value was 0.15% and 0.21% and 0.20% and 0.19%.

And the “AMOUNT In TISSUE (brain)” value [16]?
Its value is 1.55 µg and 2.02 µg and 2.13 µg and 1.97 µg and 1.92 µg.

And the “Brain CONC.” value (48 h, 40 μg/kg [sic], single mice, 40 mg/kg, 2880 min)?
The value was 4.54 µg/g and 4.77 µg/g and 4.48 µg/g and 4.37 µg/g.

What about the “Percentage” value (48 h, 40 mg/kg) of the same molecule?
Its value is 0.19%.

What about the “AUC 0-4 Hours, Brain” value (dose = 40 mg/kg) of the same molecule?
The value was 36.3 µg·h/g.

And the “AUC 0 to Infinity, Brain” value (dose = 40 mg/kg)?
The value was 627 µg·h/g.

And the “t 1/2, Brain” value (dose = 40 mg/kg)?
Its value is 47.6 h.

What about the half-life (mouse, brain, iv, 40 mg/kg, 40 mg/kg i.v., read-out: half-life of the distribution phase, brain (converted)) of the same molecule?
The half-life was 0.07 h.

And the concentration at 0.03 h (mouse, brain, iv, 40 mg/kg, 0.03 h, 40 μg/kg [sic], single mice, read-out: Brain CONC.)?
Its concentration at 0.03 h is 9800 ng/g.

And the concentration at 0.08 h (mouse, brain, iv, 40 mg/kg, 0.08 h, 40 μg/kg [sic], single mice, MEAN=b257, read-out: Brain CONC.)?
Its concentration at 0.08 h is 13500 ng/g.

What about the concentration at 0.25 h (mouse, brain, iv, 40 mg/kg, 0.25 h, 40 μg/kg [sic], single mice, read-out: Brain CONC.) of the same molecule?
Its concentration at 0.25 h is 13200 ng/g.

And the concentration at 0.5 h (mouse, brain, iv, 40 mg/kg, 0.50 h, 40 μg/kg [sic], single mice, read-out: Brain CONC.)?
The concentration at 0.5 h was 11200 ng/g.

What about the concentration at 0.75 h (mouse, brain, iv, 40 mg/kg, 0.75 h, 40 μg/kg [sic], single mice, MEAN=b278, read-out: Brain CONC.) of the same molecule?
The concentration at 0.75 h was 7540 ng/g.

And the concentration at 1 h (mouse, brain, iv, 40 mg/kg, 1 h, 40 μg/kg [sic], single mice, read-out: Brain CONC.)?
The concentration at 1 h was 11500 ng/g.

And the concentration at 4 h (mouse, brain, iv, 40 mg/kg, 4 h, 40 μg/kg [sic], single mice, read-out: Brain CONC.)?
The concentration at 4 h was 7390 ng/g.

What about the concentration at 14 h (mouse, brain, iv, 40 mg/kg, 14 h, 40 μg/kg [sic], single mice, read-out: Brain CONC.) of the same molecule?
The concentration at 14 h was 8570 ng/g.

And the concentration at 24 h (mouse, brain, iv, 40 mg/kg, 24 h, 40 μg/kg [sic], single mice, read-out: Brain CONC.)?
Its concentration at 24 h is 8580 ng/g.

What about the concentration at 48 h (mouse, brain, iv, 40 mg/kg, 48 h, 40 μg/kg [sic], single mice, read-out: Brain CONC.) of the same molecule?
The concentration at 48 h was 3670 ng/g.

What about the half-life (mouse, brain, iv, 40 mg/kg, read-out: t 1/2, Brain (converted)) of the same molecule?
Its half-life is 47.6 h.

And the Tmax (mouse, brain, iv, 40 mg/kg i.v., read-out: time of maximum concentration, brain)?
The Tmax was 15 min.

And the Kp at 0.03 h (mouse, brain/plasma, iv, 40 mg/kg, 0.03 h, 40 μg/kg [sic], single mice, read-out: RATIO BRAIN/PLASMA)?
The Kp at 0.03 h was 0.2.

And the Kp at 0.08 h (mouse, brain/plasma, iv, 40 mg/kg, 0.08 h, 40 μg/kg [sic], single mice, MEAN=b257, read-out: RATIO BRAIN/PLASMA)?
The Kp at 0.08 h was 0.47.

What about the Kp at 0.25 h (mouse, brain/plasma, iv, 40 mg/kg, 0.25 h, 40 μg/kg [sic], single mice, read-out: RATIO BRAIN/PLASMA) of the same molecule?
Its Kp at 0.25 h is 0.6.

And the Kp at 0.5 h (mouse, brain/plasma, iv, 40 mg/kg, 0.50 h, 40 μg/kg [sic], single mice, read-out: RATIO BRAIN/PLASMA)?
The Kp at 0.5 h was 0.93.

What about the Kp at 1 h (mouse, brain/plasma, iv, 40 mg/kg, 1 h, 40 μg/kg [sic], single mice, read-out: RATIO BRAIN/PLASMA) of the same molecule?
The Kp at 1 h was 1.42.

And the Kp at 4 h (mouse, brain/plasma, iv, 40 mg/kg, 4 h, 40 μg/kg [sic], single mice, read-out: RATIO BRAIN/PLASMA)?
Its Kp at 4 h is 2.84.

What about the Kp at 24 h (mouse, brain/plasma, iv, 40 mg/kg, 24 h, 40 μg/kg [sic], single mice, read-out: RATIO BRAIN/PLASMA) of the same molecule?
The Kp at 24 h was 20.7.
